Assay results reported in patent publication US11370794B2, “Toll-like receptor antagonist compounds and methods of use” (Dynavax Technologies Corporation, priority 2016, dated 2022).

Columns and labels:
human TLR7 = biological target: T1, human TLR7 (Homo sapiens, UniProt Q9NYK1); test: Inhibition of human TLR7 in human plasmacytoid dendritic cells (interferon-alpha ELISA); format: cell-based; settings: agonist heat inactivated influenza virus, 24 hours
T1 construct: Human plasmacytoid dendritic cells were plated into 96 well plates; endogenous in cells; host or cells: primary human plasmacytoid dendritic cells from buffy coats of healthy donors
T1 sequence (Q9NYK1 27-1049): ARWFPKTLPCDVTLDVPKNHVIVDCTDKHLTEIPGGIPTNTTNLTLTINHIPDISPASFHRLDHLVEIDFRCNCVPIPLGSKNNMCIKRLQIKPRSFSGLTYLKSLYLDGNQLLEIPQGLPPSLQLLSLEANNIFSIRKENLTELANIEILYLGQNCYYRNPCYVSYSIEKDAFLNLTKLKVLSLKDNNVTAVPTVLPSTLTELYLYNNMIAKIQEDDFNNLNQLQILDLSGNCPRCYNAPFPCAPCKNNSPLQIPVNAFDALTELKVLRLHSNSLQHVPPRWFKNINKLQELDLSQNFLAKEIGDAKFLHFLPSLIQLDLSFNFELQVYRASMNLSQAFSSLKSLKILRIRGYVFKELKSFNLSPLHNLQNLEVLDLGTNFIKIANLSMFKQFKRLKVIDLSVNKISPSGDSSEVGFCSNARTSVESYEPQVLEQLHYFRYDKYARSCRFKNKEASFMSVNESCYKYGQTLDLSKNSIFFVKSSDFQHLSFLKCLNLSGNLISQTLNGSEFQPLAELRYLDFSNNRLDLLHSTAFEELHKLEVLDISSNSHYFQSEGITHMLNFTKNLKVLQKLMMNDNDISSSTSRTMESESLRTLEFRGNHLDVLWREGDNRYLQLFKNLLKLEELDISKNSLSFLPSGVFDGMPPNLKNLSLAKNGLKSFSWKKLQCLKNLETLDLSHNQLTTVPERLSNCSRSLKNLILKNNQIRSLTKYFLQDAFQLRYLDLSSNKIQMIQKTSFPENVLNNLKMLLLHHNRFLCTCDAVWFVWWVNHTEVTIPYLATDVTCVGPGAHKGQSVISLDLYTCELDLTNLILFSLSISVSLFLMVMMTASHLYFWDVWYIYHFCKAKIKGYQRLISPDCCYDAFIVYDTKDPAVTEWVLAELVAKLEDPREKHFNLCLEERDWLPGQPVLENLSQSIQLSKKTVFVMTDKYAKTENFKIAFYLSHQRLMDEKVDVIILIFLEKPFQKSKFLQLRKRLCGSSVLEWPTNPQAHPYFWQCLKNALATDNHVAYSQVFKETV

human TLR9 = biological target: T2, human TLR9 (Homo sapiens, UniProt Q9NR96); test: Inhibition of human TLR9 in human B cells (IL-6 ELISA); format: cell-based; settings: for IC50: human B cells, agonist 1018 ISS 1 μM, IL-6 readout, 48 hours, range about 0.01 to 10 μM, read-out: Human TLR9 IC50; for inhibits TLR9-dependent responses (in words): summary statement of the description
T2 construct: endogenous in cells; host or cells: primary human B cells (CD19 microbeads) from buffy coats of healthy donors
T2 sequence (Q9NR96 26-1032): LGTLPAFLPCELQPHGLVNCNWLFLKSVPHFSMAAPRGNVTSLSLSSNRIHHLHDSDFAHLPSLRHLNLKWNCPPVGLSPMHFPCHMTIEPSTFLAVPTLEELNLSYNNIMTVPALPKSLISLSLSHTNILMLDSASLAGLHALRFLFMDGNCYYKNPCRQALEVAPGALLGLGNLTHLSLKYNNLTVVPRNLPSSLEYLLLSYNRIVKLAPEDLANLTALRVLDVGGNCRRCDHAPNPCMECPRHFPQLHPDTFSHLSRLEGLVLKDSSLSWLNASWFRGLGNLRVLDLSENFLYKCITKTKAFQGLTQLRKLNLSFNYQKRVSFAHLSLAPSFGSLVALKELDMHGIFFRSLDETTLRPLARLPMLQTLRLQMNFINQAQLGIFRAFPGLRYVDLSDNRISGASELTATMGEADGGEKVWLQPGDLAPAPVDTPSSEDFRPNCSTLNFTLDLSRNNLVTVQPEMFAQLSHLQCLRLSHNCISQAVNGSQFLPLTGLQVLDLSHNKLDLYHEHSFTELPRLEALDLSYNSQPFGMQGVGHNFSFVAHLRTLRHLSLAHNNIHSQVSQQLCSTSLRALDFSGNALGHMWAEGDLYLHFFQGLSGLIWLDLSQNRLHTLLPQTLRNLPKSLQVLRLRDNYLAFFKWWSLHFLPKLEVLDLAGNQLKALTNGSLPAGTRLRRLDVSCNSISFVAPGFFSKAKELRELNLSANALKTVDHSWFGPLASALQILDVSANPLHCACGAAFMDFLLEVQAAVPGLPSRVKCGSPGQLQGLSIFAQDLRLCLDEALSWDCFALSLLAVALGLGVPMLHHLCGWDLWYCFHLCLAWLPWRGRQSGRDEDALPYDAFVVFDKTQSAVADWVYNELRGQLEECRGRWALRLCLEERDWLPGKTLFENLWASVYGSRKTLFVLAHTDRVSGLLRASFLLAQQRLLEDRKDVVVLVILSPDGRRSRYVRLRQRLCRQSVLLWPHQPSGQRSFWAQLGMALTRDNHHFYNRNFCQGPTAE
In short: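 Primary human B cells (CD19-isolated from donor buffy coats), ~300,000 per well, treated with compound (about 0.01–10 μM, some 0.001–30 μM) then 1 μM CpG oligonucleotide 1018 ISS. After 48 hours at 37° C, supernatant IL-6 measured by ELISA; IC50 from concentration-response of TLR9-dependent activity.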

SMILES | IC50 (human TLR7) [nM] | IC50 (human TLR9) [nM] | inhibits TLR9-dependent responses (in words) (human TLR9)
Cc1ccc(-n2nc3c(N4CCC(C(=O)NCC(C)(C)CNc5ccccc5)CC4)nnc(C)c3c2C)cc1 [2-1] | > 10000 | 4650 | 
Cc1ccc(-n2nc3c(N4CCC(C(=O)NCCCN(C)Cc5ccccc5)CC4)nnc(C)c3c2C)cc1 [Compound No. 1, N-(3-(benzyl(methyl)amino)propyl)-1-(3,4-dimethyl-2-(p-tolyl)-2H-pyrazolo[3,4-d]pyridazin-7-yl)piperidine-4-carboxamide] | 2970 | 40 | inhibit
Cc1ccc(-n2nc3c(N4CCC(C(=O)N5CCN(Cc6ccccc6)CC5)CC4)nnc(C)c3c2C)cc1 [Compound No. 2, (4-benzylpiperazin-1-yl)(1-(3,4-dimethyl-2-(p-tolyl)-2H-pyrazolo[3,4-d]pyridazin-7-yl)piperidin-4-yl)methanone] | 9930 | 242 | inhibit
Cc1ccc(-n2nc3c(N4CCC(C(=O)NC5CN(C)C5)CC4)nnc(C)c3c2C)cc1 [Compound No. 3, 1-(3,4-dimethyl-2-(p-tolyl)-2H-pyrazolo[3,4-d]pyridazin-7-yl)-N-(1-methylazetidin-3-yl)piperidine-4-carboxamide] |  | 143 | 
Cc1ccc(-n2nc3c(N4CCC(C(=O)NC5CN(Cc6ccccc6)C5)CC4)nnc(C)c3c2C)cc1 [Compound No. 4, N-(1-benzylazetidin-3-yl)-1-(3,4-dimethyl-2-(p-tolyl)-2H-pyrazolo[3,4-d]pyridazin-7-yl)piperidine-4-carboxamide] | 3360 | 93 | inhibit
Cc1ccc(-n2nc3c(N4CCC(C(=O)NCCCN(C)C)CC4)nnc(C)c3c2C)cc1 [Compound No. 5, 1-(3,4-dimethyl-2-(p-tolyl)-2H-pyrazolo[3,4-d]pyridazin-7-yl)-N-(3-(dimethylamino)propyl)piperidine-4-carboxamide] | 2230 | 40 | inhibit
Cc1ccc(-n2nc3c(N4CCC(C(=O)NCCCc5c[nH]cn5)CC4)nnc(C)c3c2C)cc1 [Compound No. 6, N-(3-(1H-imidazol-4-yl)propyl)-1-(3,4-dimethyl-2-(p-tolyl)-2H-pyrazolo[3,4-d]pyridazin-7-yl)piperidine-4-carboxamide] | > 10000 | 154 | 
Cc1ccc(-n2nc3c(N4CCC(CCC(=O)NCCN(C)C)CC4)nnc(C)c3c2C)cc1 [Compound No. 9, 3-(1-(3,4-dimethyl-2-(p-tolyl)-2H-pyrazolo[3,4-d]pyridazin-7-yl)piperidin-4-yl)-N-(2-(dimethylamino)ethyl)propanamide] | > 10000 | 3 | 
